Experimental data as given in patent publication US8754233B2, “Pyrazolylbenzothiazole derivatives and their use as therapeutic agents” (Dermira (Canada), Inc., priority 2002, dated 2014).

What was measured:
[1] = system: macrophages; assay: Survival of macrophages; assay type: cell-based, mouse; settings: stimulated primary macrophages
[2] = system: MCP1 on HUVECS; assay: Inhibition of MCP-1 release from TNFα-stimulated HUVEC; assay type: cell-based, human; settings: 18-24 hours, ELISA
From the text: The activation of endothelial cells by pro-inflammatory cytokine TNF-α leads to the production of several chemokines. The release of these chemokines play an important role in leukocyte trafficking and extravasation of leukocytes into tissue during inflammation. MCP-1 and IL-8 are among the chemokines released upon stimulation of human endothelial cells (HUVECs) by TNFα, and contribute to migration of monocytes to the sites of inflammation. Cells should not be passaged more than 6 times.
Cells were maintained and grown in tissue culture flasks (T75) in endothelial cell growth medium (EGM, Clonetics) containing 5 additional supplements (EGM-5) in medium [human recombinant endothelial growth factor (hEGF), hydrocortisone (HC), bovine brain extract (BBE), fetal bovine serum (FBS) and Gentamycin (GA)] incubated at 37° C., 5% CO2. The cells should be propagated a maximum of 20 passages.
The plates were incubated overnight at 37° C., 5% CO2 to enable the cells to attach and grow.
The working concentration of TNFα was 1,000 pg/ml. A twenty times working concentration of TNFα was 20,000 pg/ml was prepared using EGM-5. The test compounds, DMSO negative vehicle control and staurosporine positive control were diluted 20× using EGM-5. Ten μL each of the compounds, DMSO and staurosporine were combined with 180 μl of medium containing HUVEC cells. Immediately following the addition of the compounds, 10 μl of […] TNFα was added to the wells. Medium without TNFα was added to the control wells. […] The plates were incubated at 37° C. in 5% CO2 in humidified conditions overnight (18-24 hours) for TNFα.
At the completion of the stimulation, the plates were spun at 2000 rpm for 10 minutes. The supernatants from each well were transferred to fresh plates for MCP1 analysis by ELISA.
[…] were determined with PharMingen's OptEIA™ MCP1 Kit (PharMingen) according to manufacturer's instructions.
The data is represented as a percentage of MCP1 inhibition by the following formula: % MCP1 inhibition=100−(AVG treatment/AVG DMSO control)*100.

[3] = system: ConA 1° splenocytes; assay: Survival of ConA 1° splenocytes (cytotoxicity by MTS staining); assay type: cell-based, mouse; settings: ConA-stimulated splenocytes
[4] = system: IFNg on ConA 1° splenocytes; assay: Inhibition of IFNγ release from ConA-stimulated splenocytes; assay type: cell-based, mouse; settings: ConA-stimulated Balb/c splenocytes, 18-24 hours, ELISA
Procedure: T-lymphocytes obtained from mice spleens are a suitable sample for studying the activation properties of this immunologically important cell type. T-lymphocytes are the main regulators for inflammation. Concanavalin A (ConA) is an effective activator of T-lymphocytes, which allows T-lymphocytes to proliferate and produce inflammatory cytokines, such as Interferon (IFNγ) and regulatory cytokines, such as Interleukin 10 (IL-10).
The spleens were transferred onto mesh screen containing 10 ml of ice cold RPMI-5 (1× sodium pyruvate and 5% FBS) and gently ground with a pestle. The cell suspensions were centrifuged at 1500 rpm for 6 minutes at 4° C. […] The supernatant was discarded and the pellet washed two additional times. The cells were resuspended in RPMI-5 and the cell suspensions combined. The cells were counted and their concentration was adjusted to 2.8×10^6 cells/ml using RPMI-5.
The working concentration of ConA was […]. A 20× working concentration of Concanavalin A was […] was prepared using RPMI-5. The test compounds, dimethylsulfoxide (DMSO) negative vehicle control and staurosporine positive control were diluted twenty times using RPMI-5. Ten μL each of DMSO and staurosporine were combined with 180 μl of medium containing splenocytes in the wells, and 10 μl of 50 μg/ml ConA was immediately added. Medium without ConA was added to the control wells. […] The plates were incubated at 37° C. in 5% CO2 in humidified conditions overnight (18-24 hours) for INFγ.
At the completion of the stimulation described above, the plates were spun at 2000 rpm for 10 minutes. The supernatants (100 μl) from each well were transferred to fresh plates for INFγ analysis by ELISA.
INFγ levels in the supernatants from stimulated lymphocytes were determined with PharMingen's OptEIA™ INFγ Kit (PharMingen) according to manufacturer's directions. The data, shown in Table 2 infra, is represented as a percentage of INFγ inhibition by the following formula: INFγ inhibition=100−(AVG treatment/AVG DMSO control)*100.

Compound | IC50 [1] | IC50 [2] | IC50 [3] | IC50 [4]
COc1cc2sc(-c3c(N4CCNCC4)n[nH]c3N)nc2cc1F [4-(5-Fluoro-6-methoxybenzothiazole)-5-piperizin-1-yl-2H-pyrazol-3-ylamine] | > 25 µM | 10.9 µM | 17.5 µM | 6.1 µM
COc1cc2sc(-c3c(NCCN(C)C)n[nH]c3N)nc2cc1F [N^3-(2-Dimethylaminoethyl)-4-(5-fluoro-6-methoxybenzothiazole)-1H-pyrazole-3,5-diamine] | > 25 µM | > 25 µM | > 25 µM | 11 µM
